From patent US8912230B2, “Method for treating cell degeneration using at least one molecule capable of inhibiting adhesion molecule expression and vascular endothelium actin fibre polymerization” (Aisa Therapeutics, priority 2004, dated 2014)

Experiments:
[1] = test system: rats; details: rat, in vivo; cited from earlier work
[2] = test system: C57/BL6 mice; assay: Preliminary in vivo toxicity study, blood cell count (Cell Dyn 3500/3700); design: species or system mouse
Description: FIGS. 11-25 depict the in vivo toxicity study for the natural and synthetic forms (respectively “NAT” and “SYN”) of geranyl acetate—a molecule called “AISA 5201” and selected for its representativeness of the AISA class—in a mouse model, for blood cell count parameters, at concentrations of 5, 10, 25, and 50 μg/mouse which correspond to non-toxic in vitro concentrations, allowing the desired biological effect to be observed, i.e. the inhibition of endothelial adhesion and endothelial actin polymerisation.
Two methods were used, one with the synthetic form named herein “SYN” (SIGMA catalogue number 173495), and the other with the natural unfiltered form (derived from geranium essential oils treated by HPLC) named herein “NAT”, of said molecule.
On the basis of the in vitro toxicity experiments, the “SYN” and “NAT” molecules were first tested on C57/BL6 mice at concentrations of 10, 25, and 50 μg/mouse, as well as on a control batch which was injected with PBS, either via the IP (intraperitoneal) or retro-orbital (IV) routes. Each batch consisted of 4 animals. A total of 16 animals was used.
Following the experiment, a blood cell count was performed using the Cell Dyn Systems 3500/3700 machine from Abbott Laboratories. This test was carried out to reveal any possible functional alterations. […]

Row | SMILES | LD50 [1] | most appropriate concentration (WBC, NEU, LYM, MONO and PLT values closest to control) ([2]; first experiment, 10, 25, 50 μg/mouse tested) [μg/mouse] | blood cell count ([2]; mouse, in vivo)
1 | CC(=O)OC/C=C(\C)CCC=C(C)C [AISA 5201, (E)-3,7-dimethyl-2,6-octadienyl acetate] | 6,330 mg/kg | – | –
2 | CC(=O)OC/C=C(\C)CCC=C(C)C [NAT, geranyl acetate] | – | 50 | remaining within the values of the standard range
